According to patent US10175256B2, “Compositions and methods utilizing lysophosphatidylcholine scaffolds” (National University Of Singapore, priority 2013, dated 2019):

Key:
[1] = target: T1, mouse Mfsd2a (Mus musculus, UniProt Q9DA75); test: TLC analysis of phospholipids (bio-incorporation of LPC into PC); type: cell-based; settings: TLC
T1 construct: expressed in transfected cells; host or cells: HEK293
T1 sequence (Q9DA75 1-534): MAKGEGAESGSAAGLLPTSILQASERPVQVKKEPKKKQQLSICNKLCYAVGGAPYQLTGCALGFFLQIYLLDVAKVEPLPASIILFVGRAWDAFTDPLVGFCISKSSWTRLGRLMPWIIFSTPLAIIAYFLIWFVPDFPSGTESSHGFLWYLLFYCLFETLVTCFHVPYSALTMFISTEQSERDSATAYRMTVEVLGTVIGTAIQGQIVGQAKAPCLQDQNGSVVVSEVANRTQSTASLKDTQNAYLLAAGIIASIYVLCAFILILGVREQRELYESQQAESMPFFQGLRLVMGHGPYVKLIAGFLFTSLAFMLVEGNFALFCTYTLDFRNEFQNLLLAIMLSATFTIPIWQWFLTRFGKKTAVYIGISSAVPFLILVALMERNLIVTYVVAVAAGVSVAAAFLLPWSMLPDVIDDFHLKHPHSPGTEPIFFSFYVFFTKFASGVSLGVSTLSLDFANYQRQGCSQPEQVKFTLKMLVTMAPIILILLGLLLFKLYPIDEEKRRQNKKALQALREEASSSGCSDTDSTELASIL
Protocol: HEK293 cells overexpressing with pcDNA3.1Mfsd2a (WT), pcDNA3.1Mfsd2aD92A (D92A), pcDNA3.1Mfsd2aD96A, or pcDNA3.1 (mock) plasmids or human Mfsd2a (in Sport6 plasmid) were washed once with serum-free DMEM medium before incubation with 50 μM radiolabeled LPC [^14C]oleate, LPC [^14C]DHA or with 50 μM TopFluor-LPC and NBD-LPC. Lipids were extracted twice with HIP buffer for 30 mins. Lipids were dried with nitrogen stream and reconstituted in chloroform and spotted on TLC plates (Milipore). Solvent for phospholipid separation was chloroform/methanol/ammonia solution (25%) (50:25:6, per volume). TLC plates of radiolabeled phospholipids were dried for 30 mins and exposed overnight to Phosphorscreens and scanned with Typhoon FLA 9000 scanner (Agilent). TLC plates of fluorescent phospholipids were scanned with Typhoon FLA 9000 scanner and quantified using Imagequant software.

[2] = target: T1, mouse Mfsd2a; test: In vitro transport (uptake) of radiolabeled and fluorescent LPCs in HEK293 cells overexpressing Mfsd2a; type: cell-based
Protocol: Uptake assays of radiolabeled LPCs or fluorescent LPCs were tested using HEK293 cells overexpressing Mfsd2a and mutants constructs. Briefly, HEK293 cells at 90-95% confluency were transfected using LIPOFECTAMINE 2000 (Invitrogen) with pcDNA3.1Mfsd2a (WT), pcDNA3.1Mfsd2aD92A (D92A), pcDNA3.1Mfsd2aD96A (D96A), or pcDNA3.1 (mock) plasmids. Uptake assays were performed after 24 hours of transfections. Prior to ligand incubation, HEK293 transfected cells were washed with serum-free DMEM before assays. For concentration and time dependent assays, radiolabeled LPCs were diluted in pre-warmed DMEM media. For sodium dependent assay, radiolabeled LPCs were diluted in transport buffer (5 mM KCl, 10 mM Hepes, pH 7.4) with 150 mM NaCl or 150 mM choline chloride. For sodium concentration dependent assays, any reductions in the concentration of NaCl were replaced by choline chloride in order to maintain a constant cation molarity of 150 mM. All assays were performed in 12 well-plates with triplicates and at 37° C.

[3] = target: T2, Mfsd2a (Mus musculus, UniProt Q9DA75); test: In vivo transport of radiolabeled, fluorescent LPCs and unesterified DHA in Mfsd2a KO and wild-type mice; parameters: from tissue; host or cells: living mice; brain (blood-brain barrier endothelium), liver, heart; fetal brain; settings: i.v. injection, 2 hrs post-injection, radiolabel
T2 sequence (Q9DA75 1-534): T1 sequence (Q9DA75 1-534)
Protocol: Male and female mice of age of 6-8 weeks were IV injected with 75 μl of 20 mM radiolabeled LPC-[…], 100 μl of 10 mM LPC-[^14C]DHA/BSA complex or 82 μl of 12.2 mM [^14C]DHA/BSA complex in a total volume of 150 μl of phosphate-buffered saline. At 2 hours post injection, mice were anesthetized and perfused for 5 mins with PBS containing 0.5% BSA in order to remove blood and lipid tracer bound to the brain vasculature. Tissues were harvested for lipid extraction. For lipid extraction, tissues were weighed and similar amounts of tissues were homogenized in chloroform/methanol. Lipids from the organic phase were mixed with scintillant and scintillation counted. Similar experiments were also performed with an injection of 300 μg NBD-LPC/BSA or 300 μg TopFluor-LPC/BSA complex per mouse. In this experiment, mice were perfused for 5 mins with PBS followed 15 mins perfusion with 4% paraformaldehyde (PFA) for tissue fixation. Brain sections of WT and KO with a thickness of 40 μm were prepared and scanned using green fluorescence mode in Typhoon FLA 9000 scanner (Agilent). NBD-LPC accumulation was expressed as fluorescence of each section per its area. Dietary DHA transport from mother to fetus was also measured using [^14C]DHA/BSA complex. Pregnant females at e18.5 was gavaged with bolus of [^14C]DHA/BSA complex (200 μl of 10 mM [^14C]DHA/BSA/mouse). Brain of fetuses were collected 20 hours post-gavage and weighed. Lipid extraction and radioactivity were performed as described above.

[4] = Blood LPC [14C]-oleate analysis; type: in vivo, mice; settings: intravenous, 2 hrs post-injection
Protocol: Mfsd2a KO and WT mice were injected intravenously with 100 μM radioactive labeled LPC [^14C]-oleate. 10 μl of blood samples were collected after 2 min (initial dose) and after 2 hr from tail vein, and radioactivity was quantified by scintillation counting. The amount of plasma LPC [^14C]-oleate in the KO mice was expressed as ratio to the WT at each time point.

net uptake of LPC ligand (PC mass) ([1]; 100 μM unlabeled LPC-oleate, 1 hour): Increased net uptake
uptake of radiolabeled LPC by cells expressing Mfsd2a relative to control cells ([2]; HEK293 cells, wild-type Mfsd2a vs mock, LPC/BSA, 30 mins): concentration-dependent uptake
brain uptake in KO mice relative to wild-type [3]: markedly reduced
plasma level of injected tracer in KO mice relative to WT [4]: increased levels
Structure (SMILES): CCCCCCCCC=CCCCCCCCC(=O)OC[C@@H](O)COP(=O)([O-])OCC[N+](C)(C)C [LPC-[^14C]oleate, 1-oleoyl 2-lysophosphocholine]
conversion of transported LPCs into PCs ([1]; HEK293 cells expressing Mfsd2a, radiolabeled LPC): rapid conversion of transported LPCs into PCs
comparison of Mfsd2a-mediated uptake (capacity to transport) ([2]; HEK293 cells expressing Mfsd2a): highest capacity to transport LPC-DHA, followed by LPC-oleate, and LPC-palmitate
